PMC10009755, “Discovery and Characterization of BAY-805, a Potent and Selective Inhibitor of Ubiquitin-Specific Protease USP21” (Journal of Medicinal Chemistry, 2023)
Converted amounts (≈) assume the structure as drawn. Read-outs that look alike come from different tables or passages of the source.

Tests used:
log D measurement (HPLC) = type: physicochemical; details: reverse-phase HPLC, pH 7.5, pH 7.5, HPLC method; read-out: logD7.5
Protocol: log D values at pH 7.5 were recorded using an indirect method for determining hydrophobicity constants by reverse-phase HPLC. A series of compounds with well-known log D values were used for calibration. Test compounds were injected into the same HPLC system. The lipophilicity of compounds was then assessed by comparison to the calibration curve.

Aqueous solubility = type: physicochemical; details: PBS pH 6.5, pH 6.5, PBS pH 6.5
Protocol: Test compounds were applied as DMSO solutions or directly from powder. After the addition of the buffer, solutions were shaken at rt for 24 h. The undissolved material was removed by filtration or centrifugation. The compound dissolved in the supernatant was quantified by HPLC-UV or HPLC-MS/MS.

in vitro = in vitro ADME; details: human, Caco-2, pH 7.2
Protocol: Caco-2 cells [purchased from the German Collection of Microorganisms and Cell Cultures (DSMZ)] were seeded at a density of 4.5 × 10^4 cells/well on 24-well insert plates [0.4 μm pore size, 0.3 cm^2 (Costar)] and grown for 13–15 days in DMEM medium supplemented with 10% fetal calf serum (FCS), 1% GlutaMAX (100×, Gibco), 100 U/mL penicillin, 100 μg/mL streptomycin (Gibco), and 1% nonessential amino acids (100×, Thermo Fischer Scientific). […] The medium was changed every 2–3 days.
The bidirectional transport assay for the evaluation of Caco-2 permeability was undertaken in 24-well insert plates using a robotic system (Tecan). Before the assay was run, the culture medium was replaced by a transport medium (FCS-free HEPES carbonate transport buffer pH 7.2). For the assessment of monolayer integrity, the transepithelial electrical resistance (TEER) was measured. Only monolayers with a TEER of at least 400 Ω·cm^2 were used. Test compounds were pre-dissolved in DMSO and added either to the apical or basolateral compartment at a final concentration of 2 μM. The evaluation was performed in triplicate. […] The efflux ratio (ER) basolateral (B) to apical (A) was calculated by dividing Papp B–A by Papp A–B.

NF-κB activation = assay: NF-κB reporter assay; type: cell-based; details: HEK293T cells, up to 10 μM
Protocol: Yang and colleagues reported that USP21 inhibition induces NF-κB activation by preventing deubiquitination of RIP1.[15] K63 ubiquitinated RIP1 is required for NF-κB activation, and thus USP21-mediated deubiquitination of RIP1 shuts down the NF-κB pathway.
Four hours after replating, cells were treated with compounds or DMSO (note: DMSO concentrations were kept consistent across all cells). Promega Dual-Luciferase Reporter Assay kit was then used to prepare samples for Firefly and Renilla signal measurement on a CLARIOstar microplate reader (BMG) 20 h after compound treatment. Relative luciferase units were calculated by normalizing the Firefly signal to the background Renilla signal, followed by normalization to DMSO controls of wild-type USP21.

[1] = biological target: T1, C-terminal HiBiT-tagged USP21 (Homo sapiens, UniProt Q9UK80); assay: USP21 HiBiT CETSA; type: cell-based; details: 49 °C, HEK293T cells
T1 construct: expressed in transfected cells; host or cells: HEK293T
T1 sequence (Q9UK80 1-565): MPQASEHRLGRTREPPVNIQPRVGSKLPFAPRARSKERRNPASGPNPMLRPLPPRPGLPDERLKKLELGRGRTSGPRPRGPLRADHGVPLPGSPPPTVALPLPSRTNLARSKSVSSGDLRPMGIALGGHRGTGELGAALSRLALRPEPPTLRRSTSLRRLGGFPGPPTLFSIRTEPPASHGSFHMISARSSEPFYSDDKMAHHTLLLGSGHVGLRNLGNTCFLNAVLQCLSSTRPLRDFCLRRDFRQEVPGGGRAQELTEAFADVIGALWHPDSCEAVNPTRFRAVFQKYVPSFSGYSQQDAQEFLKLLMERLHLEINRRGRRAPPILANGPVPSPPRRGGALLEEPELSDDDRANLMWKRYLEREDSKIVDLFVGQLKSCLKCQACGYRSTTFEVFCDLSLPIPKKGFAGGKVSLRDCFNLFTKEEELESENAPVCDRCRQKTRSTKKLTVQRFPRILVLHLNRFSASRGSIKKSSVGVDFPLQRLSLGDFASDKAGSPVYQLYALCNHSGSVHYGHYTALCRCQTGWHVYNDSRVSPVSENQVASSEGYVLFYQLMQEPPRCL
Protocol: In particular, we utilized a HiBiT CETSA assay format[42],[43] conducted in intact HEK293T cells. Cells were transfected with USP21 fused to a small proluminescent NanoLuc HiBiT tag, which, when complemented with the Large BiT NanoLuc fragment, produces a quantifiable luminescence signal.
HEK293T cells were seeded in a six-well plate at 8 × 10^5 cells/well in 2 mL of DMEM supplemented with 10% FBS, penicillin (100 U/mL), and streptomycin (100 μg/mL) and transfected 4 h after seeding using an X-tremeGENE HP transfection reagent, following the manufacturer’s instructions with a total of 2 μg of plasmid constructs (C-terminally tagged USP21 HiBiT and empty pCDNA3.1 vector). […] The breathable paper adhesive film was then replaced with a PCR adhesive film, and cells were heated at indicated temperatures in an Applied Biosystems VeritiPro thermal cycler for 3 min, followed by 3 min incubation at rt before the addition of LgBiT solution (200 nM LgBiT, 2% NP-40, protease inhibitors (Roche cOmplete, ethylenediaminetetraacetic acid (EDTA)-free Protease Inhibitor) in OptiMEM no phenol red (Gibco)) to lyse cells.

USP21 [2] = biological target: T2, USP21 (Homo sapiens, UniProt Q9UK80)
T2 sequence (Q9UK80 1-565): T1 sequence (Q9UK80 1-565)
Protocol: The final assay volume was 6 μL. […] First, 2 μL of 1 nM USP21 (or selectivity enzyme) solution was added to the compound plate and preincubated for 15–20 min at room temperature. […] The reaction was stopped by 50 mM citric acid in 25 mM HEPES, pH 7.5, containing 0.01% BSA. […] The USP21 and USP22 were measured with five flashes and USP2 and USP7 in fly mode.

USP21 [3] = biological target: T2, USP21; assay: biochemical
Protocol: To this end, we developed a USP21 activity assay that is based on the deubiquitination of a STING-derived peptide (a USP21-specific substrate[17],[18]) by purified recombinant human full-length USP21 using time-resolved fluorescence resonance energy transfer (TR-FRET) technology (referred to as a homogeneous time-resolved fluorescence (HTRF)-assay, for details see the Supporting Information).[39]
All substrate and enzyme solutions were diluted in an assay buffer. […] Incubation time was 15–20 min at room temperature. […] The stop solution (DUB inhibitor PR619, Abcam) was prepared in 25 mM HEPES, pH 7.5 (Alfa Aesar) containing 0.01% BSA and then left for 10 min at room temperature before filtering with a 0.2 μM PES Membrane (Thermo Fisher). The reaction was stopped with the addition of 2 μL of 200 μM PR619. […] The plates were measured on the ViewLux in screening or PHERAstar FSX in compound profiling. […] The number of flashes per well was set to 3. All of the experimental data were plotted using Genedata analysis. The Z′-factor and S/B of the assay were >0.7 and ∼2, respectively.

chromatographic logD (log D measurement (HPLC)): 3.7 | solubility at 24 h (Aqueous solubility): 1.33 µM (≈ 0.691 µg/mL) | Papp A→B at 2 h, 2 µM (in vitro; 2 μM, 2 h): 3.4 ×10⁻⁶ cm/s | efflux ratio at 2 h, 2 µM (in vitro; Papp B–A / Papp A–B, read-out: Caco-2 efflux ratio (ER)): 0.7 | cellular thermal stabilization of USP21 (in words) [1]: Strong thermal stabilization of USP21 | IC50 (USP21 [2]): 8 nM | IC50 (USP21 [3]): 13 nM
SMILES: N#Cc1ccc(Cc2nnc(NC(=O)[C@H](NC(=O)C3(C(F)(F)F)CCCCC3)C3CCCC3)s2)cc1 [Compound 20, FC(F)(F)C1(CCCCC1)C(=O)N[C@H](C2CCCC2)C(=O)Nc3nnc(Cc4ccc(cc4)C#N)s3]
NF-κB activation (in words) (NF-κB activation): significant NF-κB activation levels
